Measurements from the NIST ThermoML archive (doi:10.1016/j.jct.2016.09.007).
Numbers after ± are expanded uncertainties.

Assay: xn = mol fraction of the nth substance listed
Conditions: 93.2 kPa, Liquid; for speed of sound: Frequency=3 MHz, Sing-around technique in a fixed-path interferometer; for mass density: Vibrating tube method

CCCC(=O)[O-].CCCC[NH3+] [n-butylammonium butanoate] + CCCCCO
Conditions | mass density, 293.15 K [kg/m3] | mass density, 298.15 K [kg/m3] | speed of sound, 293.15 K [m/s] | speed of sound, 298.15 K [m/s] | speed of sound, 303.15 K [m/s]
x1 = 0.0504 | 824.946 ± 4 | 821.27 ± 4 | 1301.5 ± 5.3 | 1284.3 ± 5.3 | 1267.3 ± 5.3
x1 = 0.1004 | 834.049 ± 4 | 830.391 ± 4 | 1308.8 ± 5.3 | 1291.6 ± 5.3 | 1274.6 ± 5.3
x1 = 0.1491 | 842.19 ± 4 | 838.55 ± 4 | 1315.5 ± 5.3 | 1298.2 ± 5.3 | 1281.2 ± 5.3
x1 = 0.2025 | 850.502 ± 4 | 846.885 ± 4 | 1322.6 ± 5.3 | 1305.3 ± 5.3 | 1288.2 ± 5.3
x1 = 0.2513 | 857.492 ± 4 | 853.902 ± 4 | 1328.8 ± 5.3 | 1311.6 ± 5.3 | 1294.5 ± 5.3
x1 = 0.3007 | 864.133 ± 4 | 860.568 ± 4 | 1335 ± 5.3 | 1317.8 ± 5.3 | 1300.7 ± 5.3
x1 = 0.3506 | 870.527 ± 4 | 866.989 ± 4 | 1341.3 ± 5.3 | 1324.1 ± 5.3 | 1307.1 ± 5.3
x1 = 0.4003 | 876.48 ± 4 | 872.967 ± 4 | 1347.5 ± 5.3 | 1330.3 ± 5.3 | 1313.3 ± 5.3
x1 = 0.4485 | 881.984 ± 4 | 878.492 ± 4 | 1353.3 ± 5.3 | 1336.2 ± 5.3 | 1319.2 ± 5.3
x1 = 0.4981 | 887.228 ± 4 | 883.761 ± 4 | 1359.2 ± 5.3 | 1342.1 ± 5.3 | 1325.1 ± 5.3
x1 = 0.549 | 892.419 ± 4 | 888.971 ± 4 | 1365.4 ± 5.3 | 1348.2 ± 5.3 | 1331.3 ± 5.3
x1 = 0.5979 | 897.108 ± 4 | 893.686 ± 4 | 1371.3 ± 5.3 | 1354.1 ± 5.3 | 1337.1 ± 5.3
x1 = 0.6483 | 901.8 ± 4 | 898.401 ± 4 | 1377.6 ± 5.3 | 1360.3 ± 5.3 | 1343.3 ± 5.3
x1 = 0.6971 | 906.089 ± 4 | 902.72 ± 4 | 1383.8 ± 5.3 | 1366.4 ± 5.3 | 1349.3 ± 5.3
x1 = 0.7444 | 910.065 ± 4 | 906.721 ± 4 | 1389.8 ± 5.3 | 1372.2 ± 5.3 | 1355 ± 5.3
x1 = 0.7997 | 914.585 ± 4 | 911.263 ± 4 | 1397.4 ± 5.3 | 1379.5 ± 5.3 | 1362 ± 5.3
x1 = 0.8466 | 918.226 ± 4 | 914.903 ± 4 | 1404.4 ± 5.3 | 1386 ± 5.3 | 1368.2 ± 5.3
x1 = 0.901 | 922.256 ± 4 | 918.92 ± 4 | 1413 ± 5.3 | 1394 ± 5.3 | 1375.7 ± 5.3
x1 = 0.9495 | 925.7 ± 4 | 922.407 ± 4 | 1421.1 ± 5.3 | 1401.3 ± 5.3 | 1382.5 ± 5.3
x1 = 1 | 928.794 ± 4 | 925.509 ± 4 | 1431.5 ± 5.3 | 1410.3 ± 5.3 | 1390.4 ± 5.3
